Test results reported in US20250009819A1, “NOVEL PROBIOTICS AND USE THEREOF” (PBLBIOLAB CO., LTD., priority 2021, published 2025).

What was measured:
gut microbiota = experiment: LPS production in gut microbiota (ELISA); assay type: cell-based; conditions: human feces culture; lactic acid bacteria 1×10^6 CFU/mL; anaerobic 24 hr
Experimental: Fresh human feces were suspended in anaerobic medium (GAM, Nissui Pharmaceutical Co., Ltd., Japan) and allowed to stand for 10 min. The supernatant was diluted with 10,000-fold anaerobic medium, 0.05 mL of the dilution was transplanted into 5 mL of freshly made anaerobic medium, and lactic acid bacteria (1×10^6 CFU/mL) were implanted and incubated anaerobically for 24 hr.

[1] = Antioxidant activity (DPPH, in vitro); assay type: biochemical; conditions: DPPH 0.2 mM; lactic acid bacteria suspension 1×10^8 CFU/ml; 37° C. 20 min
Experimental: DPPH (2,2-Diphenyl-1-picrylhydrazyl) was dissolved in ethanol to a concentration of 0.2 mM to prepare DPPH solution. Lactic acid bacteria suspension (1×10^8 CFU/ml) or vitamin C solution (1 g/ml) was added to 0.1 ml of the above DPPH solution and incubated at 37° C. for 20 min. The culture was centrifuged at 3000 rpm for 5 min to obtain a supernatant. The absorbance of the supernatant was then measured at 517 nm and the antioxidant activity of the lactic acid bacteria was calculated.

TNF-α = TNF-α expression in LPS-treated macrophages (ELISA); assay type: cell-based, C57BL/6 mice; conditions: macrophages treated with lactic acid bacteria and LPS for 24 hours
Experimental: (§1) C57BL/6 mice (male, 6 weeks old, 20-23 g) were subjected to an intraperitoneal injection of 2 ml of sterile 4% thioglycolate solution, and after 96 hours, the mice were anesthetized and injected with 8 ml of RPMI 1640 medium through the peritoneal cavity. Then, after 5-10 minutes, the RPMI medium (macrophages) in the mouse peritoneal cavity was extracted, centrifuged at 1000 g for 10 minutes, and washed again with RPMI 1640 medium twice. Macrophages were seeded in 24-well plates at a count of 0.5×10^6 in each well, and treated with lactic acid bacteria and LPS, an inflammatory response-inducing substance, for 24 hours. TNF-α and IL-10 cytokine expression amount in the culture supernatant was then measured by ELISA Kit.

Neuropeptide Y (NPY) = Neuropeptide Y (NPY) expression in PC12 phaeochromocytoma cells; assay type: cell-based; conditions: LPS 200 ng/ml; lactic acid bacteria 1×10^4 CFU/ml; 24 hr
Experimental: PC12 cells obtained from the Korean Cell Line Bank were cultured in DMEM medium supplemented with 10% FBS and 1% antibiotics, and dispensed at 1×10^6 cells per well in a 12-well plate. Then, LPS (200 ng/ml) was added to each well along with lactic acid bacteria (1×10^4 CFU/ml) and incubated for 24 hr. The cells and supernatants were collected, sonicated and centrifuged, and the amount of NPY in the supernatant was measured by ELISA kit.

Clostridium difficile = Clostridium difficile proliferation in gut microbiota (PCR); assay type: cell-based; conditions: human feces culture; lactic acid bacteria 1×10^6 CFU/mL; anaerobic 24 hr
Experimental: Fresh human feces were suspended in anaerobic medium (GAM, Nissui Pharmaceutical Co., Ltd., Japan) and allowed to stand for 10 min. The supernatant was diluted with 10,000-fold anaerobic medium, 0.05 mL of the dilution was transplanted into 5 mL of freshly made anaerobic medium, and lactic acid bacteria (1×10^6 CFU/mL) were implanted and incubated anaerobically for 24 hr. This culture medium was divided into two, one was centrifuged (5000 rpm, 20 minutes), the precipitated DNA was isolated using the QIAamp DNA stool mini kit (Qiagen, Germany), and Clostridium difficile (primer: forward, 5′-[…]-3′ (SEQ ID NO: 4); reverse, 5′-[…]-3′ (SEQ ID NO: 5) was quantified by PCR. The reaction product was first treated at 95° C. for 30 seconds, followed by 42 cycles of 5 seconds at 95° C. and 30 seconds at 72° C. for analysis. In addition, one culture medium was sonicated, centrifuged, and filter-sterilized, and the amount of LPS in the supernatant was measured using an ELISA kit.

BDNF = BDNF expression in SH-SY5Y cells; assay type: cell-based; conditions: LPS 200 ng/ml; lactic acid bacteria 1×10^4 CFU/ml; 24 h
Experimental: SH-SY5Y cells obtained from the Korean Cell Line Bank were cultured in DMEM medium supplemented with 10% FBS and 1% antibiotics, and dispensed at 2×10^6 cells per well in a 12-well plate. Then, LPS (200 ng/ml) was added to each well along with lactic acid bacteria (1×10^4 CFU/ml) and incubated for 24 h. The cells and supernatants were collected, sonicated and centrifuged, and the amount of BDNF in the supernatant was measured by ELISA kit.

IL-10 = IL-10 expression in LPS-treated macrophages (ELISA); assay type: cell-based, C57BL/6 mice; conditions: macrophages treated with lactic acid bacteria and LPS for 24 hours
Experimental: as §1

| Substance | Gut microbiota Inhibition of LPS production (gut microbiota) | Antioxidant activity [1] | Macrophage Inhibition of TNF-α expression (TNF-α) | PC12 cell Induction of NPY expression (Neuropeptide Y (NPY)) | Gut microbiota Inhibition of difficile bacteria proliferation (Clostridium difficile) | SHSY5Y cell Induction of BDNF expression (BDNF) | Macrophage Induction of IL-10 expression (IL-10) |
| --- | --- | --- | --- | --- | --- | --- | --- |
| Lactobacillus reuteri NK201 | + (weakly (+; >20-60%)) | + (weakly (+; >20-60%)) | + (weakly (+; >20-60%)) | + (weakly (+; >20-60%)) | + (weakly (+; >20-60%)) | + (weakly (+; >20-60%)) | + (weakly (+; >20-60%)) |
| Lactobacillus plantarum NK183 | + (weakly (+; >20-60%)) | + (weakly (+; >20-60%)) | + (weakly (+; >20-60%)) | − (not or less than 20% (−; <20%)) | + (weakly (+; >20-60%)) | − (not or less than 20% (−; <20%)) | − (not or less than 20% (−; <20%)) |
| Bifidobacterium catenulatum NK227 | + (weakly (+; >20-60%)) | + (weakly (+; >20-60%)) | + (weakly (+; >20-60%)) | + (weakly (+; >20-60%)) | + (weakly (+; >20-60%)) | − (not or less than 20% (−; <20%)) | + (weakly (+; >20-60%)) |
| Lactobacillus plantarum NK182 | − (not or less than 20% (−; <20%)) | ++ (strongly (++; >60-90%)) | − (not or less than 20% (−; <20%)) | − (not or less than 20% (−; <20%)) | ++ (strongly (++; >60-90%)) | − (not or less than 20% (−; <20%)) | − (not or less than 20% (−; <20%)) |
| Lactobacillus casei NK196 | + (weakly (+; >20-60%)) | ++ (strongly (++; >60-90%)) | − (not or less than 20% (−; <20%)) | + (weakly (+; >20-60%)) | + (weakly (+; >20-60%)) | − (not or less than 20% (−; <20%)) | − (not or less than 20% (−; <20%)) |
| Bifidobacterium pseudocatenulatum NK229 | − (not or less than 20% (−; <20%)) | + (weakly (+; >20-60%)) | + (weakly (+; >20-60%)) | − (not or less than 20% (−; <20%)) | − (not or less than 20% (−; <20%)) | + (weakly (+; >20-60%)) |  |
| Bifidobacterium longum NK217 | − (not or less than 20% (−; <20%)) | + (weakly (+; >20-60%)) | + (weakly (+; >20-60%)) | − (not or less than 20% (−; <20%)) | − (not or less than 20% (−; <20%)) | − (not or less than 20% (−; <20%)) |  |
| Lactobacillus paracasei NK192 |  | ++ (strongly (++; >60-90%)) | − (not or less than 20% (−; <20%)) | − (not or less than 20% (−; <20%)) | − (not or less than 20% (−; <20%)) | − (not or less than 20% (−; <20%)) | − (not or less than 20% (−; <20%)) |
| Lactobacillus paracasei NK191 |  | + (weakly (+; >20-60%)) | − (not or less than 20% (−; <20%)) | + (weakly (+; >20-60%)) | − (not or less than 20% (−; <20%)) | + (weakly (+; >20-60%)) | + (weakly (+; >20-60%)) |
| Lactococcus graminis NK207 | + (weakly (+; >20-60%)) | − (not or less than 20% (−; <20%)) |  | − (not or less than 20% (−; <20%)) | + (weakly (+; >20-60%)) | − (not or less than 20% (−; <20%)) |  |
| Lactobacillus paracasei NK190 |  | + (weakly (+; >20-60%)) | − (not or less than 20% (−; <20%)) | + (weakly (+; >20-60%)) | + (weakly (+; >20-60%)) | − (not or less than 20% (−; <20%)) | − (not or less than 20% (−; <20%)) |
| Lactobacillus sakei NK199 | − (not or less than 20% (−; <20%)) | + (weakly (+; >20-60%)) | + (weakly (+; >20-60%)) | − (not or less than 20% (−; <20%)) | − (not or less than 20% (−; <20%)) | − (not or less than 20% (−; <20%)) |  |
| Lactococcus graminis NK206 |  | + (weakly (+; >20-60%)) | − (not or less than 20% (−; <20%)) | + (weakly (+; >20-60%)) |  |  | − (not or less than 20% (−; <20%)) |
| Lactobacillus gasseri NK188 |  | + (weakly (+; >20-60%)) | + (weakly (+; >20-60%)) | − (not or less than 20% (−; <20%)) | + (weakly (+; >20-60%)) | − (not or less than 20% (−; <20%)) | + (weakly (+; >20-60%)) |
